In US20240327928A1, “METHOD FOR IDENTIFYING RESPONSIVENESS TO FIBROBLAST GROWTH FACTOR RECEPTOR 1 INHIBITOR THERAPY” (UNIVERSITÄT ZU KÖLN, priority 2021, published 2024):

Tests used:
[1] = test system: Ba/F3 cells expressing ΔEC-FGFR1; experiment: Screening of Ba/F3 cells expressing ΔEC-FGFR1 with FGFR inhibitors (cellular ATP content after 96 hours); type: cell-based, murine; settings: IL3 depleted conditions
Excerpt: Located genes in this region (middle, bottom; positive strand, negative strand), break coverage (top), location of tail-to-tail breaks (arrows and black dashed lines) are shown. Normal exon structure of NSD3 and FGFR1 with the genomic breaks are indicated by an asterisk independent of the chromosomal position shown above (bottom). b) Resulting rearrangement of the t-to-t break (dashed lines, top) and spanning reads from whole transcriptome sequencing data (bottom) is shown. c) PCR from corresponding cDNA with two different primer pairs, spanning the t-to-t break and FGFR1 (left) and matched normal cDNA (right) d) Hybrid-capture-based genomic sequencing (468×depth) copy number plot zoomed to the location of FGFR1 (middle). Tumor sample is from a patient with unknown response upon FGFR inhibition. Normal exon structure of FGFR1 (bottom), location of a tail-to-tail break (arrows), and break coverage (top) is shown. e) The resulting rearrangement of the t-to-t break is shown (dashed lines). f) Break spanning reads detected by ARCHER sequencing technique are indicated. g) Immunoblotting of transformed Baf3 cells (Baf3 FGFR1 AEC and Baf3 EML4-ALK as control) vs. non-transformed Baf3 cells transduced with empty Vector (Baf3 e.V.), FGFR1 alpha (Baf3 FGFR1aplpa), and FGFR1 beta (Baf3 FGFR1beta). […]

[2] = test system: FGFR1 amplified patient derived xenograft (PDX) models of squamous cell lung cancer; experiment: Patient derived xenograft tumor models treated with BG.J398 vs. vehicle; type: in vivo, mice; settings: 20 mg/kg daily oral
Experimental: Bars are indicated by number (1) (GI50>1 μM) or number (2) (GI50>1 μM) b) Average copy number of 6 cell lines not sensitive upon FGFR inhibition (marked by number (1)) and 2 cell lines which are sensitive upon FGFR inhibition (marked by number (2)). Copy number was extracted from genomic sequencing or whole exome sequencing data and plotted to chromosome 8 (hg19) with ROBOCOP. Location of NSD3 and FGFR1 with grey-backed surface c) Average tumor growth reduction of 8 patient derived xenograft tumor models treated with BG.J398 vs. vehicle. All models were confirmed to be FGFR1 amplified by FGFR1 FISH. Each bar represents an experiment of at least six mice and 12 tumors. Bars are marked by number (1) (tumor reduction of <30%) or by number (2) (tumor reduction of >30%). d) Average copy number of 5 patient derived xenograft tumor models not benefitting from FGFR inhibition (marked by number (1)) and 3 patient derived xenograft tumor (PDX) models which benefit from FGFR inhibition (marked by number (2)). Copy number was extracted from genomic sequencing data and plotted to chromosome 8 (hg19) with ROBOCOP. e) Tumor volume change of patients with squamous cell lung cancer harboring FGFR1 amplification and treated with BG.J398. Tumor volume change was measured by RECIST criteria. […] TUM003 and TUM007 died during treatment and no sign of response. * labeled sample was an of label FGFR inhibitor treated patient where no RECIST data were available. f) Average copy number of 5 patients with progressive disease (marked by number (2)) and 4 patients with durable, partial response upon FGFR inhibition (marked by number (1), one patient was treated with an off label used FGFR inhibitor (GW786034 HCl). […]
Furthermore, the inventors analysed patient-derived 8p12-8p11-amplified squamous cell lung cancer xenotransplant models. In total, the inventors performed FGFR1 fluorescence in situ hybridization (FISH) on 35 patient derived xenograft (PDX) models from EpoBerlin, 39 PDX models from Crown Bioscience Inc., 3 samples of Moro Massimo as previously described. […]

[3] = test system: FGFR1-amplified squamous cell lung cancer; experiment: Patients with FGFR1-amplified squamous cell lung cancer treated with an FGFR inhibitor (phase I clinical trial / off-label use); type: in vivo, human; settings: 8 patients treated with BG.J398, phase I clinical trial
Experimental: (§1) Bars are indicated by number (1) (GI50>1 μM) or number (2) (GI50>1 μM) b) Average copy number of 6 cell lines not sensitive upon FGFR inhibition (marked by number (1)) and 2 cell lines which are sensitive upon FGFR inhibition (marked by number (2)). Copy number was extracted from genomic sequencing or whole exome sequencing data and plotted to chromosome 8 (hg19) with ROBOCOP. Location of NSD3 and FGFR1 with grey-backed surface c) Average tumor growth reduction of 8 patient derived xenograft tumor models treated with BG.J398 vs. vehicle. All models were confirmed to be FGFR1 amplified by FGFR1 FISH. Each bar represents an experiment of at least six mice and 12 tumors. Bars are marked by number (1) (tumor reduction of <30%) or by number (2) (tumor reduction of >30%). d) Average copy number of 5 patient derived xenograft tumor models not benefitting from FGFR inhibition (marked by number (1)) and 3 patient derived xenograft tumor (PDX) models which benefit from FGFR inhibition (marked by number (2)). Copy number was extracted from genomic sequencing data and plotted to chromosome 8 (hg19) with ROBOCOP. e) Tumor volume change of patients with squamous cell lung cancer harboring FGFR1 amplification and treated with BG.J398. […]
Finally, the inventors analyzed biopsy specimens obtained from 10 patients with FGFR1-amplified squamous cell lung cancer. […]

[4] = test system: FGFR1-amplified lung cancer cell lines; experiment: GI50 screening of FGFR1-amplified lung cancer cell lines against FGFR inhibitors (6 resistant lines); type: cell-based; settings: 6 of 8 FGFR1-amplified lung cancer cell lines, read-out: half-growth-inhibitory concentration, or GI50
Experimental: as §1, with “(2)).” for “(2)). Copy number was extracted from genomic sequencing data and plotted to chromosome 8 (hg19) with ROBOCOP. e) Tumor volume change of patients with squamous cell lung cancer harboring FGFR1 amplification and treated with BG.J398.”
(§2) To gain a deeper understanding of 8p11-8p12-amplified lung cancer tumors and to link specific patterns of the 8p12-8p11 amplicon structure with FGFR1 dependency, the inventors analyzed an independent cohort of 26 8p-amplified tumor specimens with known sensitivity to FGFR inhibition. […]

DMS114 = experiment: GI50 screening of FGFR1-amplified lung cancer cell lines against FGFR inhibitors; type: cell-based; settings: Homo sapiens, DMS-114; sensitive cell line DMS114; read-out: half-growth-inhibitory concentration, or GI50
Experimental: as §1, with “(2)).” for “(2)). Copy number was extracted from genomic sequencing data and plotted to chromosome 8 (hg19) with ROBOCOP. e) Tumor volume change of patients with squamous cell lung cancer harboring FGFR1 amplification and treated with BG.J398.”
as §2

H1581 = experiment: as above; type: cell-based; settings: Homo sapiens, NCI-H1581; sensitive cell line H1581; read-out: half-growth-inhibitory concentration, or GI50
Experimental: as §1, with “(2)).” for “(2)). Copy number was extracted from genomic sequencing data and plotted to chromosome 8 (hg19) with ROBOCOP. e) Tumor volume change of patients with squamous cell lung cancer harboring FGFR1 amplification and treated with BG.J398.”
as §2

Row | GI50 [4] | GI50 (DMS114) | GI50 (H1581) | Compound | sensitivity to FGFR inhibition [1] | Average tumor growth reduction vs. vehicle ([2]; 3 PDX models which benefit, bars (2)) | Average tumor growth reduction vs. vehicle ([2]; 5 PDX models not benefitting, bars (1)) | PDX models sensitive to FGFR inhibition ([2]; 8 FGFR1 amplified PDX models) | patients with durable, partial response (tumor volume change by RECIST) [3] | patients with progressive disease (tumor volume change by RECIST) [3]
1 | > 1000 nM | < 1000 nM | < 1000 nM | CCN1CCN(c2ccc(Nc3cc(N(C)C(=O)Nc4c(Cl)c(OC)cc(OC)c4Cl)ncn3)cc2)CC1 [BG.J398] | highly sensitive | > 30% | < 30% | Three of the 8 patient derived xenotransplant (PDX) models were sensitive | 3 patients | 5 patients
2 |  |  |  | AZD4547 | highly sensitive |  |  |  |  | 
